Where a name gives a salt, the structure may show the parent alone.
How the values were obtained:
[1] = Saturation concentration in de-ionized water; type: physicochemical; details: DI water
Protocol: Bupivacaine hydrochloride (Sigma-Aldrich Corporation, St. Louis, Mo.) was dissolved in de-ionized (DI) water at a concentration of 40 mg/ml (saturation). A calculated amount of sodium hydroxide (1 N solution) was added to the solution and the pH of the final mixtures was adjusted to 10 to precipitate the BP base. The precipitated product was filtered, and further washed with DI water for at least three times. The precipitated product was dried at approximately 40° C. in vacuum for 24 hours.

[2] = cited from earlier work

| Compound | concentration in de-ionized water at saturation [1] [µg/mL] | reported solubility in water [2] |
| --- | --- | --- |
| CCCCN1CCCCC1C(=O)Nc1c(C)cccc1C (centres unmarked) [Bupivacaine hydrochloride] | 40000 |  |
| CC(=O)OCC(COC(C)=O)OC(C)=O [triacetin] |  | 7.17 grams in 100 ml of water |

Reference: patent US20120177697A1, “Excipients In Drug Delivery Vehicles” (Durect Corporation, priority 2003, published 2012)
